Entries after “also recorded” stand apart in the source; their conditions may differ.
Tests used:
5TGM1 cells = assay: Ex vivo IFN-gamma ELISPOT on splenocytes; format: in vivo, mouse; conditions: splenocytes of BTZ-treated, rechallenged mice
Experimental: 5×10^5 5TGM1 WT or calrKO were treated with BTZ (7.5 nM) in vitro for 16 h. C57BL/KaLwRijHsd mice (n=8 per group) were then either vaccinated in the left flank with dying 5TGM1 WT, 5TGM1calrKO, 5TGM1 gabarapKO or not vaccinated. After 1 week, 1×10^6 WT 5TGM1 cells were injected in the contralateral flank and tumor growth was monitored over time. In a parallel experiment under the same conditions, spleens from mice were harvested 10 days after rechallenge and ELISPOT assay was performed to assess T cell specific reactivity against MM cells (Translational Immunogenomics Laboratory, DFCI).
C57BL/KaLwRijHsd mice bearing 5TGM1 WT tumors were treated with BTZ as above. 2 weeks after observation of tumor regression, treated (n=5) as well as naïve mice (n=5), were rechallenged with viable 1×10^6 5TGM1 WT cells, and tumor growth was monitored over time. In a parallel experiment, spleens were harvested 2 weeks after tumor rechallenge from both groups to test T cell specific reactivity against multiple myeloma cell by ELISPOT assay (Translational Immunogenomics Laboratory, DFCI).

[1] = system: AMO1, H929 and KMS11 MM cells; assay: Phagocytosis assay of MM cells by monocyte-derived DCs; format: cell-based, human
Experimental: Mo-DCs were generated from CD14+ peripheral blood monocytes were positively selected using magnetic beads (Miltenyi Biotec) and cultured for 6 days in mo-DC differentiation medium containing GM-CSF and IL-4 (130-094-812; Miltenyi Biotec) to generate Mo-DCs. AMO1, KMS11 and H929 cells lines, as well as patient MM cells, were stained with CellTrace™ Far Red (ThermoFisher Scientific), cultured with or without BTZ (for 16 h), and then incubated in 48-well plates for 4 h at 1:1 ratio with CellTrace™ CFSE stained Mo-DCs. Cells were then collected, and phagocytosis analysis was performed by flow cytometry and confocal microscopy. Analagous phagocytosis experiments was performed using 5TGM1 murine MM and immature murine DC line JAWSII.
Collected cells were analyzed using the BD LRSFortessa™ X-20 flow cytometer. Mo-DCs that engulfed MM cells were CFSE and FAR-RED double positive. Fold increase in percentage of double positive DCs after co-culture with BTZ treated vs untreated MM cells was compared.
Mo-DCs were generated from CD14+ peripheral blood monocytes from healthy donors, positively selected using magnetic beads (Miltenyi Biotec), cultured for 6 days in mo-DC differentiation medium containing GM-CSF and IL-4 (130-094-812; Miltenyi Biotec). AMO1 and NCI-H929 cells lines, as well as patient MM cells, were stained with CellTrace™ Far Red (ThermoFisher Scientific), cultured with or without BTZ for 16 h, and then incubated in 48-well plates for 4 h at 1:1 ratio with CellTrace™ CFSE stained Mo-DCs. Cells were then collected, and phagocytosis analysis was performed by flow cytometry and confocal microscopy. Analagous phagocytosis experiments were performed using 5TGM1 murine multiple myeloma and JAWSII cell line that was used as source of immature murine DCs.
Flow cytometry-based assay: Collected cells were analyzed using the BD LRSFortessa X-20 flow cytometer. Mo-DCs that engulfed MM cells were CFSE and FAR-RED double positive. Fold increase in percentage of double positive DCs after co-culture with BTZ treated vs untreated MM cells was compared.

CALR = assay: Mass spectrometry after CALR immunoprecipitation; format: cell-based, human; conditions: AMO1 WT vs GABARAP^KO, with or without BTZ
From the text: To test this hypothesis, the CALR network was explored at the protein level by performing mass spectrometry (MS) after CALR immunoprecipitation (IP) in WT or GABARAP^KO AMO1 cells in the presence or absence of BTZ. […] CALR trap in the mitochondria has been recently reported in tumors with high stanniocalcin 1 (STC1), a newly recognized phagocytosis checkpoint driving tumor immune resistance (Lin et al. (2021) Cancer Cell. April 12; 39(4):480-493.e6. doi: 10.1016/j.ccell.2020.12.023. Epub 2021 Jan. 28. PMID: 33513345; PMCID: PMC8044011). […] A WB analysis of FLAG-immunoprecipitated proteins in […] cells expressing FLAG-tagged GABARAP was performed to analyze GABARAP interacting partners. […] These findings identify a molecular mechanism whereby GABARAP prevents STC1 binding to CALR; conversely, in low-GABARAP cells STC1 binding to CALR induces trapping of CALR in the mitochondria (FIG. 34).

5TGM1 tumors = assay: RNA-seq analysis from mouse tumors; format: in vivo; conditions: immunocompetent mice
Experimental: Tumors growing from both 5TGM1 WT or calrKO cells in C57BL/KaLwRijHsd mice treated with either PBS or BTZ (3/group) were harvested and used to extract RNA using the RNeasy® kit (Qiagen). After passing quality control, RNAseq was performed using Illumina NextSeq 500 Single-End 75 bp (SE75) and analyzed following the VIPER NGS analysis pipeline (Cornwell et al. (2018) BMC Bioinform. 19:135) comparing BTZ-treated mice vs PBS in each experimental setting. Listing of differentially expressed genes (DEGs) were applied to gene set enrichment analysis (GSEA) and Cytoscape (Bindea et al. (2009) Bioinform. 25:1091-1093; Bindea et al. (2013) Bioinform. 29:661-663) software to reveal biological pathways modulated by BTZ.
Tumors growing from both 5TGM1 WT or Calr^KO cells in C57BL/KaLwRijHsd mice treated with either PBS or BTZ (3/group) were harvested and used to extract RNA using the RNeasy kit (Qiagen). After passing quality control, RNAseq was performed using Illumina NextSeq 500 Single-End 75 bp (SE75) and analyzed following the VIPER NGS analysis pipeline (Cornwell et al. (2018) BMC Bioinformatics; 19(1):135), comparing BTZ-treated mice vs PBS in each experimental setting. […] Analysis of expression of human orthologs of these 90 genes in MM patients and correlation with patient clinical outcome was then analyzed as detailed below. […]

## CC(C)C[C@H](NC(=O)[C@H](Cc1ccccc1)NC(=O)c1cnccn1)B(O)O [BTZ, bortezomib]
5TGM1 cells
  T cell reactivity against MM cells (IFN-gamma ELISPOT): robust immune response against multiple myeloma cells; also recorded: generates a robust immune response against MM cells
[1]; AMO1, NCI-H929 WT, BTZ 16 h, then 4 h co-culture
  phagocytosis of BTZ-treated MM cells by DCs: induces functional maturation of dendritic cells (DCs) in vitro; also recorded: enhanced uptake of BTZ-treated MM cells; also recorded: engulfed by monocyte-derived DCs after 4 h of co-culture
[1]; AMO1 GABARAP^KO
  phagocytosis of BTZ-treated MM cells by DCs: did not stimulate phagocytosis by DCs; also recorded: GABARAP^KO abrogates phagocytosis by DCs
[1]; GABARAP^KO in 2 ICD-sensitive cell lines (AMO1, H929)
  induction of ICD: abrogated the induction of ICD by BTZ
[1]; KMS11 / GABARAP-null cells
  induction of ICD: resistant to induction of ICD by BTZ
[1]; KMS11 / GABARAP-null cells, listed as Bortezomib
  induction of ICD: does not induce ICD in GABARAP-null cells
[1]; KMS11 cells (monoallelic deletion of GABARAP)
  functional maturation of co-cultured DCs (phagocytosis assay): did not lead to an increase of CRT exposure or functional maturation of co-cultured DCs
CALR
  binding of CALR to mitochondrial proteins: increases the binding of CALR to mitochondrial proteins in AMO1 GABARAP^KO cells and not WT cells; also recorded: increase of the binding of CALR to mitochondrial proteins only in AMO1 GABARAP^KO cells; also recorded: CALR localizes to the mitochondria after treatment with BTZ in GABARAP KO cells
5TGM1 tumors; 5TGM1 Calr^KO tumors
  transcriptional changes in tumors (RNA-seq): decreased this effect
5TGM1 tumors; 5TGM1 WT tumors, two BTZ treatments 0.5 mg/kg
  transcriptional changes in tumors (RNA-seq): switched on a transcriptional program that is linked to the activation of an immune response; also recorded: consistent with activation of an immune response

— patent publication US12109266B2, “Modulating gabarap to modulate immunogenic cell death” (Dana-Farber Cancer Institute, Inc., priority 2020, dated 2024)
